Test results taken from patent US20230014907A1, “INHIBITORS OF APOL1 AND METHODS OF USING SAME” (Vertex Pharmaceuticals Incorporated, priority 2020, published 2023).

Target: T1, G1 APOL1 (Homo sapiens, UniProt O14791, I384M/S342G)
T1 construct: expressed in transfected cells
T1 sequence (O14791 28-398 S342G/I384M): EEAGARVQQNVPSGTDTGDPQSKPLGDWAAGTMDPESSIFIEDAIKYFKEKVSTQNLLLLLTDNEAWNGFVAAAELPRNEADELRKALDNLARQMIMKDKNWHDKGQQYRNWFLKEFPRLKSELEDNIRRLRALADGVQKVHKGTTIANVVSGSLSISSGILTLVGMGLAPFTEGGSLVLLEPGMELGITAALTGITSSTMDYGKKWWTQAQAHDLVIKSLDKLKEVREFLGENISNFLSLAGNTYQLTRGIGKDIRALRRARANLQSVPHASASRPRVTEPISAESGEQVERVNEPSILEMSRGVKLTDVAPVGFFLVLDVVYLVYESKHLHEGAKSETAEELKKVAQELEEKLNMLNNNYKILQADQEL
Assay: Acute APOL1 Thallium Assay with Inducible Stable Clones of HEK 293 Cells
Type: cell-based
Details: HEK 293 inducible stable clones, G1 APOL1; read-out: Thallium Assay (IC50)
Description: Acute APOL1 Thallium Assay with Inducible Stable Clones of HEK 293 Cells
Apolipoprotein L1 (APOL1) proteins form potassium-permeable cation pores in the plasma membrane. APOL1 risk variants (G1 and G2) induce greater potassium flux than G0 in HEK293 cells. This assay exploits the permeability of thallium (Tl+) through ligand-gated potassium channels. The dye produces a bright fluorescent signal upon binding to Tl+ conducted through potassium channels. The intensity of the Tl+ signal is proportional to the number of potassium channels in the open state. Therefore, it provides a functional indication of the potassium channel activities. During the initial dye-loading step, the Tl+ indicator dye as an acetoxymethyl (AM) ester enters the cells through passive diffusion. Cytoplasm esterases cleave the AM ester and relieve its active thallium-sensitive form. The cells are then stimulated with Tl+. The increase of fluorescence in the assay represents the influx of Tl+ into the cell specifically through the potassium channel (i.e. through APOL1 pores), providing a functional measurement of potassium channel/pore activity. The Thallium assay is conducted with cells expressing G1 APOL1.
APOL1 Cell Line (HEK T-Rex Stable Inducible Cell Line) • HEK T-Rex System • Tetracycline (Tet) inducible mammalian expression system. • Stably express the Tet repressor to regulate transcription. • Expression under the full-length CMV promoter. • APOL1 stable inducible cell line Clone used: G1 DC3.25
Tissue Culture Media • Cell Culture Medium • DMEM+10% FBS+P/S+5 μg/mL blasticidin+1 μg/mL puromycin. • 500 mL DMEM+55 mL FBS+5 mL P/S+280 μL blasticidin S HCl (10 mg/mL)+56 μL puromycin (10 mg/mL). • Cell Assay Medium • DMEM with 2% FBS+penicillin/streptomycin.
Instruments and Equipment • Nuaire cell culture hood, Cat. No. 540-600 • 37° C./5% CO2 incubator link to robotic arm, Liconic: STX110 • Molecular Devices FLIPR^Tetra High throughput cellular screening system, Cat. No. FT0324, Molecular Devices • ThermoFisher MultiDrop 384, Cat. No. 5840300 • Biotek Microfill, Cat. No. ASF1000A-4145 • BioRad TC10 cell counter, Cat. No. 145-0010
Cells Scaled Up from Frozen Vials • APOL1 G1 3.25 (HEK293 T-Rex) frozen vials: 5 million cells per vial • Step 1, Day 1: Defrost frozen vial into T-225. • Step 2, Day 5: (when 85% confluent): Split one T-225 at 3×10^6 cells per flask. • Step 3, Day 8: Splits cells to set up for the assay plates as described below.
T-Rex APOL1 HEK cells are split twice per week to keep the confluence state below 85% of the culture flask surface area. Cells can be kept until passage 25. • Cell Culture Medium • DMEM high glucose+10% FBS, +P/S, +5 μg/mL blasticidin, +1 μg/mL puromycin. • 500 mL DMEM, +55 mL FBS, +5 mL P/S, +280 μL blasticidin 10 mg/mL, +56 μL Puromycin 10 mg/mL. • Assay Media • Opti-MEM reduced serum medium from Invitrogen.
Preparation of Cell Assay Plates • Culture medium is removed from the x cm^2 T-flask by aspiration. • The cell monolayer is rinsed with PBS 1× at room temperature. PBS is removed by aspiration. • Cells are trypsinized using Trypsin. • The flasks are incubated at room temperature for 2-3 minutes. • Complete DMEM medium is then added. Cell suspension is then transferred to a 50 mL Falcon polypropylene tube. • Cells are then counted using a BioRad TC10 cell counter and the required amount of cells are centrifuged at 1200 RPM for 5 minutes. Required amount is 1.3×10^6 cells/mL APOL1 T-Rex HEK cells. • The pellet is suspended in the assay medium. • Using the MultiDrop, add 20 μL to each well (corresponds to 26000 cells total per well) of a 384-well black, transparent, flat bottom Poly-D coated plate. • Tetracycline as prepared in the following section is added to the cells before plating to induce APOL1 expression. • Plates are left at room temperature for 20 to 30 minutes before incubation at 37° C. and 5% CO2. […]

IC50 | SMILES
0.25 to 1 µM | COCCC(=O)NCCc1c(-c2ccc(F)cc2)[nH]c2c(F)cc(F)cc12 [Compound 412]
> 1 µM | O=C(NCCc1c(-c2ccc(F)cc2)[nH]c2c(F)cc(F)cc12)c1c[nH]nc1C(F)(F)F [Compound 316]
> 1 µM | O=C(CCCc1c(-c2ccc(F)cc2)[nH]c2c(F)cc(F)cc12)NCC1CNC(=O)C1 (stereo not shown) [Compound 252]
> 1 µM | CC(C)(C)OC(=O)N[C@@H](CCO)C(=O)NCCc1c(-c2ccc(F)cc2)[nH]c2c(F)cc(F)cc12 [Compound 307]
> 1 µM | Cc1ccc(CNC(=O)OCCc2c(-c3ccc(F)cc3)[nH]c3c(F)cc(F)cc23)o1 [Compound 485]
> 1 µM | O=C(NCCc1c(-c2ccc(F)cc2)[nH]c2c(F)cc(F)cc12)c1cncc(F)c1 [Compound 377]
> 1 µM | O=C(NCCc1c(-c2ccc(F)cc2)[nH]c2c(F)cc(F)cc12)NCc1ccoc1 [Compound 299]
> 1 µM | Cc1cc(F)c2[nH]c(-c3ccc(F)cc3)c(CCC(=O)NCC(N)=O)c2c1 [Compound 223]
> 1 µM | C[C@H](O)CC(=O)NCCc1c(-c2ccc(F)cc2)[nH]c2c(F)cc(F)cc12 [Compound 356]
0.25 to 1 µM | CC(CC(N)=O)NC(=O)NCCc1c(-c2ccc(F)cc2)[nH]c2c(F)cc(F)cc12 (racemic) [Compound 271]
0.25 to 1 µM | CC(CCO)NC(=O)CCc1c(-c2ccc(F)cc2)[nH]c2c(F)cc(Cl)cc12 (racemic) [Compound 200]
> 1 µM | O=C1CC(C(=O)NCCc2c(-c3ccc(F)cc3)[nH]c3c(F)cc(F)cc23)CO1 (stereo not shown) [Compound 383]
< 0.25 µM | C[C@@H](CO)NC(=O)OCCc1c(-c2ccc(F)cc2)[nH]c2c(F)cc(F)cc12 [Compound 440]
> 1 µM | O=C(NCCc1c(-c2ccc(F)cc2)[nH]c2c(F)cc(F)cc12)c1ccnnc1 [Compound 399]
> 1 µM | O=C(NCCc1c(-c2ccc(F)cc2)[nH]c2c(F)cc(F)cc12)[C@H]1CCOC1 [Compound 407]
> 1 µM | Cn1cc(CNC(=O)CCCc2c(-c3ccc(F)cc3)[nH]c3c(F)cc(F)cc23)cn1 [Compound 254]
0.25 to 1 µM | CC(CCO)NC(=O)OCCc1c(-c2ccc(F)cc2)[nH]c2c(F)cc(F)cc12 (racemic) [Compound 457]
> 1 µM | CC(C)(C)OC(=O)NC1(C(=O)NCCc2c(-c3ccc(F)cc3)[nH]c3c(F)cc(F)cc23)CCC1 [Compound 311]
> 1 µM | Cc1nccn1CC(=O)NCCc1c(-c2ccc(F)cc2)[nH]c2c(F)cc(F)cc12 [Compound 380]
0.25 to 1 µM | C[C@H](CO)NC(=O)CCCc1c(-c2ccc(F)cc2)[nH]c2c(F)cc(F)cc12 [Compound 241]
> 1 µM | Cc1ccn(CC(=O)NCCc2c(-c3ccc(F)cc3)[nH]c3c(F)cc(F)cc23)n1 [Compound 378]
0.25 to 1 µM | CC(C)(C)OC(=O)NC(CC(N)=O)C(=O)NCCc1c(-c2ccc(F)cc2)[nH]c2c(F)cc(F)cc12 (stereo not shown) [Compound 304, tert-butyl N-[3-amino-1-[2-[5,7-difluoro-2-(4-fluorophenyl)-1H-indol-3-yl]ethylcarbamoyl]-3-oxo-propyl]carbamate]
> 1 µM | O=C(COc1cccnc1)NCCc1c(-c2ccc(F)cc2)[nH]c2c(F)cc(F)cc12 [Compound 373]

IC50 | SMILES
> 1 µM | CC(C)(O)CNC(=O)NCCc1c(-c2ccc(F)cc2)[nH]c2c(F)cc(F)cc12 [Compound 279]
> 1 µM | CC(CC(=O)NC(CO)C(F)(F)F)c1c(-c2ccc(F)cc2)[nH]c2c(F)cc(F)cc12 (single isomer, unassigned) [Compound 514]
> 1 µM | OC1(CC#Cc2c(-c3ccc(F)cc3)[nH]c3c(F)cc(F)cc23)COC1 [Compound 524, 3-[3-[5,7-difluoro-2-(4-fluorophenyl)-1H-indol-3-yl]prop-2-ynyl]oxetan-3-ol]
0.25 to 1 µM | O=C(NCCc1c(-c2ccc(F)cc2)[nH]c2c(F)cc(F)cc12)NC1(CCO)CC1 [Compound 274]
> 1 µM | O=C(CCN1CCCC1=O)NCCc1c(-c2ccc(F)cc2)[nH]c2c(F)cc(F)cc12 [Compound 370]
> 1 µM | O=C1N[C@@H](C(=O)NCCc2c(-c3ccc(F)cc3)[nH]c3c(F)cc(F)cc23)CO1 [Compound 306, (4R)—N-[2-[5,7-difluoro-2-(4-fluorophenyl)-1H-indol-3-yl]ethyl]-2-oxo-oxazolidine-4-carboxamide]
> 1 µM | O=C(NCCO)NCCc1c(-c2ccc(F)cc2)[nH]c2c(F)cc(F)cc12 [Compound 286]
< 0.25 µM | CC(C)(CO)NC(=O)OCCc1c(-c2ccc(F)cc2)[nH]c2c(F)cc(F)cc12 [Compound 435]
> 1 µM | CC(O)(CO)CNC(=O)CCCc1c(-c2ccc(F)cc2)[nH]c2c(F)cc(F)cc12 (stereo not shown) [Compound 250]
0.25 to 1 µM | N#CC(NC(=O)OCCc1c(-c2ccc(F)cc2)[nH]c2c(F)cc(F)cc12)C(N)=O (stereo not shown) [Compound 456]
> 1 µM | CC(=O)NCC(=O)NCCc1c(-c2ccc(F)cc2)[nH]c2c(F)cc(F)cc12 [Compound 344]
0.25 to 1 µM | O=C(NCCc1c(-c2ccc(F)cc2)[nH]c2c(F)cc(F)cc12)C1CCCCC1O (stereo not shown) [Compound 326]
> 1 µM | O=C1CNC(=O)N1CCc1c(-c2ccc(F)cc2)[nH]c2c(F)cc(F)cc12 [Compound 258, 3-[2-[5,7-difluoro-2-(4-fluorophenyl)-1H-indol-3-yl]ethyl]imidazolidine-2,4-dione]
> 1 µM | O=C(NCCc1c(-c2ccc(F)cc2)[nH]c2c(F)cc(F)cc12)C1CC(O)C1 (stereo not shown) [Compound 348]
> 1 µM | O=C(NCCc1c(-c2ccc(F)cc2)[nH]c2c(F)cc(F)cc12)C(F)F [Compound 414]
> 1 µM | O=C(NCCc1c(-c2ccc(F)cc2)[nH]c2c(F)cc(F)cc12)NCCS(=O)(=O)O [Compound 263]
> 1 µM | O=C1N[C@H](C(=O)NCCc2c(-c3ccc(F)cc3)[nH]c3c(F)cc(F)cc23)CS1 [Compound 322]
0.25 to 1 µM | CC(C)(C#N)C(=O)NCCc1c(-c2ccc(F)cc2)[nH]c2c(F)cc(F)cc12 [Compound 411]
> 1 µM | Cn1cnc(CNC(=O)OCCc2c(-c3ccc(F)cc3)[nH]c3c(F)cc(F)cc23)c1 [Compound 478]
> 1 µM | O=C(Cc1c(-c2ccc(F)cc2)[nH]c2ccccc12)NCC(O)CO (stereo not shown) [Compound 516, N-(2,3-dihydroxypropyl)-2-(2-(4-fluorophenyl)-1H-indol-3-yl)acetamide]
> 1 µM | Cc1cnn(CC(=O)NCCc2c(-c3ccc(F)cc3)[nH]c3c(F)cc(F)cc23)c1 [Compound 379]
> 1 µM | O=C(NCCc1c(-c2ccc(F)cc2)[nH]c2c(F)cc(F)cc12)C1CC(O)(C(F)(F)F)C1 (stereo not shown) [Compound 314]
0.25 to 1 µM | NC(=O)C1(NC(=O)OCCc2c(-c3ccc(F)cc3)[nH]c3c(F)cc(F)cc23)CC1 [Compound 473]
